Measurements: US20230085307A1, “PYRIDAZINONE COMPOUND AND HERBICIDE” (NISSAN CHEMICAL CORPORATION, priority 2019, published 2023)

How the values were obtained:
lambsquarters [1] = test: Test Example 4: herbicidal effect by soil treatment (Table 19, symbol O); format: in vivo, lambsquarters (Chenopodium album); settings: amount of applied herbicide 320 g/ha
How it was run: (§1)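 Seeds were sown in sterilized diluvial soil and covered with about 1.5 cm of soil. An emulsion formulation diluted with water to a predetermined herbicide amount was sprayed evenly onto the soil surface. Plants grew in a greenhouse at 25° C. to 30° C., and the effect was scored three weeks after application using criteria from an earlier test.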

green foxtail [2] = test: Test Example 5: herbicidal effect by foliage application, plastic box (Table 20, symbol G); format: in vivo, green foxtail (Setaria viridis); settings: foliage application, 320 g/ha, three weeks after application
How it was run: (§2)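 Plants sown in sterilized diluvial soil and grown 14 days in a greenhouse at 25° C to 30° C, then sprayed on the foliage with the compound's emulsion diluted in water to a predetermined herbicide amount. Injury to weeds and crops scored three weeks after application on a visual rating scale.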

Italian ryegrass [3] = test: Test Example 5: herbicidal effect by foliage application, plastic box (Table 20, symbol K); format: in vivo, Italian ryegrass (Lolium multiflorum); settings: foliage application, 320 g/ha, three weeks after application
How it was run: as §2

windgrass [4] = test: Test Example 4: herbicidal effect by soil treatment (Table 19, symbol L); format: in vivo, windgrass (Apera spica-venti); settings: amount of applied herbicide 320 g/ha
How it was run: as §1

velvetleaf [5] = test: Test Example 4: herbicidal effect by soil treatment (Table 19, symbol M); format: in vivo, velvetleaf (Abutilon theophrasti); settings: amount of applied herbicide 320 g/ha
How it was run: as §1

blackgrass [6] = test: Test Example 4: herbicidal effect by soil treatment (Table 19, symbol J); format: in vivo, blackgrass (Alopecurus myosuroides); settings: amount of applied herbicide 320 g/ha
How it was run: as §1

wild oat [7] = test: Test Example 4: herbicidal effect by soil treatment (Table 19, symbol I); format: in vivo, wild oat (Avena fatua); settings: amount of applied herbicide 320 g/ha
How it was run: as §1

Italian ryegrass [8] = test: Test Example 4: herbicidal effect by soil treatment (Table 19, symbol K); format: in vivo, Italian ryegrass (Lolium multiflorum); settings: amount of applied herbicide 320 g/ha
How it was run: as §1

persian speedwell [9] = test: Test Example 4: herbicidal effect by soil treatment (Table 19, symbol R); format: in vivo, Persian speedwell (Veronica persica); settings: amount of applied herbicide 320 g/ha
How it was run: as §1

persian speedwell [10] = test: Test Example 5: herbicidal effect by foliage application, plastic box (Table 20, symbol R); format: in vivo, Persian speedwell (Veronica persica); settings: foliage application, 320 g/ha, three weeks after application
How it was run: as §2

barnyard grass [11] = test: Test Example 4: herbicidal effect by soil treatment (Table 19, symbol H); format: in vivo, barnyard grass (Echinochloa crus-galli); settings: amount of applied herbicide 320 g/ha
How it was run: as §1

barnyard grass [12] = test: Test Example 3: herbicidal effect by foliage application, Wagner pot (Table 18, symbol H); format: in vivo, barnyard grass (Echinochloa crus-galli); settings: amount of applied herbicide 320 g/ha
How it was run: (§3)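 Plants were sown in alluvial soil held under 0.1–0.5 cm standing water and grown 14 days in a greenhouse at 25–30 °C. An emulsifiable formulation, water-diluted to the set dose, was then sprayed onto the foliage, and effects were scored three weeks later using previously defined criteria.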

blackgrass [13] = test: Test Example 5: herbicidal effect by foliage application, plastic box (Table 20, symbol J); format: in vivo, blackgrass (Alopecurus myosuroides); settings: foliage application, 320 g/ha, three weeks after application
How it was run: as §2

oval-leafed pondweed = test: Test Example 1: herbicidal activity, application before weed generation under submerged conditions (Table 16, symbol C); format: in vivo, oval-leafed pondweed (Monochoria vaginalis); settings: amount of applied herbicide 320 g/ha
How it was run: (§4)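 Emulsion formulation, water-diluted to set dose, was put onto the flooded surface (4 cm depth, alluvial soil) the same day weeds were sown and 2.5-leaf rice transplanted. After 3 weeks at 25-30 °C under glass, each species was rated 0 (≤5% kill) to 5 (≥90% kill).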

southern crabgrass [14] = test: Test Example 4: herbicidal effect by soil treatment (Table 19, symbol F); format: in vivo, southern crabgrass (Digitaria ciliaris); settings: amount of applied herbicide 320 g/ha
How it was run: as §1

late watergrass = test: Test Example 1: herbicidal activity, application before weed generation under submerged conditions (Table 16, symbol A); format: in vivo, late watergrass (Echinochloa oryzicola); settings: amount of applied herbicide 320 g/ha
How it was run: as §4

false cleavers = test: Test Example 4: herbicidal effect by soil treatment (Table 19, symbol Q); format: in vivo, false cleavers (Galium spurium); settings: amount of applied herbicide 320 g/ha
How it was run: as §1

lambsquarters [15] = test: Test Example 5: herbicidal effect by foliage application, plastic box (Table 20, symbol O); format: in vivo, lambsquarters (Chenopodium album); settings: foliage application, 320 g/ha, three weeks after application
How it was run: as §2

windgrass [16] = test: Test Example 5: herbicidal effect by foliage application, plastic box (Table 20, symbol L); format: in vivo, windgrass (Apera spica-venti); settings: foliage application, 320 g/ha, three weeks after application
How it was run: as §2

wild oat [17] = test: Test Example 5: herbicidal effect by foliage application, plastic box (Table 20, symbol I); format: in vivo, wild oat (Avena fatua); settings: foliage application, 320 g/ha, three weeks after application
How it was run: as §2

chickweed [18] = test: Test Example 4: herbicidal effect by soil treatment (Table 19, symbol P); format: in vivo, common chickweed (Stellaria media); settings: amount of applied herbicide 320 g/ha
How it was run: as §1

rice flat sedge = test: Test Example 3: herbicidal effect by foliage application, Wagner pot (Table 18, symbol E); format: in vivo, rice flat sedge (Cyperus iria); settings: amount of applied herbicide 320 g/ha
How it was run: as §3

southern crabgrass [19] = test: Test Example 5: herbicidal effect by foliage application, plastic box (Table 20, symbol F); format: in vivo, southern crabgrass (Digitaria ciliaris); settings: foliage application, 320 g/ha, three weeks after application
How it was run: as §2

redroot pigweed [20] = test: Test Example 4: herbicidal effect by soil treatment (Table 19, symbol N); format: in vivo, redroot pigweed (Amaranthus retroflexus); settings: amount of applied herbicide 320 g/ha
How it was run: as §1

barnyard grass [21] = test: Test Example 5: herbicidal effect by foliage application, plastic box (Table 20, symbol H); format: in vivo, barnyard grass (Echinochloa crus-galli); settings: foliage application, 320 g/ha, three weeks after application
How it was run: as §2

green foxtail [22] = test: Test Example 4: herbicidal effect by soil treatment (Table 19, symbol G); format: in vivo, green foxtail (Setaria viridis); settings: amount of applied herbicide 320 g/ha
How it was run: as §1

Japanese bulrush = test: Test Example 1: herbicidal activity, application before weed generation under submerged conditions (Table 16, symbol B); format: in vivo, Japanese bulrush (Schoenoplectus juncoides); settings: amount of applied herbicide 320 g/ha
How it was run: as §4

Chinese sprangletop = test: Test Example 3: herbicidal effect by foliage application, Wagner pot (Table 18, symbol D); format: in vivo, chinese sprangletop (Leptochloa chinensis); settings: amount of applied herbicide 320 g/ha
How it was run: as §3

velvetleaf [23] = test: Test Example 5: herbicidal effect by foliage application, plastic box (Table 20, symbol M); format: in vivo, velvetleaf (Abutilon theophrasti); settings: foliage application, 320 g/ha, three weeks after application
How it was run: as §2

chickweed [24] = test: Test Example 5: herbicidal effect by foliage application, plastic box (Table 20, symbol P); format: in vivo, common chickweed (Stellaria media); settings: foliage application, 320 g/ha, three weeks after application
How it was run: as §2

redroot pigweed [25] = test: Test Example 5: herbicidal effect by foliage application, plastic box (Table 20, symbol N); format: in vivo, redroot pigweed (Amaranthus retroflexus); settings: foliage application, 320 g/ha, three weeks after application
How it was run: as §2

## Cc1nn(C)c(=O)c(-c2c(-c3ccc(OCC(F)(F)F)cc3)oc3ccc(F)cc23)c1O [9-035]
Lambsquarters [1]
  O: lambsquarters, herbicidal effect grade: 5 (Herbicidal rate of 90% or more (almost completely withered))
Green foxtail [2]
  herbicidal effect on green foxtail (G): 5 (Herbicidal rate of 90% or more (almost completely withered))
Italian ryegrass [3]
  herbicidal effect on Italian ryegrass (K): 5 (Herbicidal rate of 90% or more (almost completely withered))
Windgrass [4]
  L: windgrass, herbicidal effect grade: 5 (Herbicidal rate of 90% or more (almost completely withered))
Velvetleaf [5]
  M: velvetleaf, herbicidal effect grade: 4 (Herbicidal rate of 70% or more and less than 90%)
Blackgrass [6]
  J: blackgrass, herbicidal effect grade: 5 (Herbicidal rate of 90% or more (almost completely withered))
Wild oat [7]
  I: wild oat, herbicidal effect grade: 2 (Herbicidal rate of 20% or more and less than 40%)
Italian ryegrass [8]
  K: Italian ryegrass, herbicidal effect grade: 5 (Herbicidal rate of 90% or more (almost completely withered))
Persian speedwell [9]
  R: persian speedwell, herbicidal effect grade: 5 (Herbicidal rate of 90% or more (almost completely withered))
Persian speedwell [10]
  herbicidal effect on persian speedwell (R): 5 (Herbicidal rate of 90% or more (almost completely withered))
Barnyard grass [11]
  H: barnyard grass, herbicidal effect grade: 5 (Herbicidal rate of 90% or more (almost completely withered))
Barnyard grass [12]
  Herbicidal effect on H (barnyard grass), foliage application: 5 (Herbicidal rate of 90% or more (almost completely withered))
Blackgrass [13]
  herbicidal effect on blackgrass (J): 5 (Herbicidal rate of 90% or more (almost completely withered))
oval-leafed pondweed
  Herbicidal effect, C: oval-leafed pondweed: 0 (Herbicidal rate of 5% or less (almost no effect))
Southern crabgrass [14]
  F: southern crabgrass, herbicidal effect grade: 5 (Herbicidal rate of 90% or more (almost completely withered))
Late watergrass
  Herbicidal effect, A: late watergrass: 2 (Herbicidal rate of 20% or more and less than 40%)
False cleavers
  Q: false cleavers, herbicidal effect grade: 3 (Herbicidal rate of 40% or more and less than 70%)
Lambsquarters [15]
  herbicidal effect on lambsquarters (O): 4 (Herbicidal rate of 70% or more and less than 90%)
Windgrass [16]
  herbicidal effect on windgrass (L): 5 (Herbicidal rate of 90% or more (almost completely withered))
Wild oat [17]
  herbicidal effect on wild oat (I): 5 (Herbicidal rate of 90% or more (almost completely withered))
Chickweed [18]
  P: chickweed, herbicidal effect grade: 5 (Herbicidal rate of 90% or more (almost completely withered))
Rice flat sedge
  Herbicidal effect on E (rice flat sedge), foliage application: 5 (Herbicidal rate of 90% or more (almost completely withered))
Southern crabgrass [19]
  herbicidal effect on southern crabgrass (F): 5 (Herbicidal rate of 90% or more (almost completely withered))
Redroot pigweed [20]
  N: redroot pigweed, herbicidal effect grade: 5 (Herbicidal rate of 90% or more (almost completely withered))
Barnyard grass [21]
  herbicidal effect on barnyard grass (H): 5 (Herbicidal rate of 90% or more (almost completely withered))
Green foxtail [22]
  G: green foxtail, herbicidal effect grade: 5 (Herbicidal rate of 90% or more (almost completely withered))
Japanese bulrush
  Herbicidal effect, B: Japanese bulrush: 0 (Herbicidal rate of 5% or less (almost no effect))
Chinese sprangletop
  Herbicidal effect on D (Chinese sprangletop), foliage application: 3 (Herbicidal rate of 40% or more and less than 70%)
Velvetleaf [23]
  herbicidal effect on velvetleaf (M): 5 (Herbicidal rate of 90% or more (almost completely withered))

## C=CCSc1ccc(-c2sc3ccc(F)cc3c2-c2c(O)c(C)nn(C)c2=O)cc1 [2-422]
Lambsquarters [1]
  herbicidal effect, O: lambsquarters: 3 (Herbicidal rate of 40% or more and less than 70%)
Green foxtail [2]
  G: green foxtail, herbicidal effect grade: 5 (Herbicidal rate of 90% or more (almost completely withered))
Italian ryegrass [3]
  K: Italian ryegrass, herbicidal effect grade: 5 (Herbicidal rate of 90% or more (almost completely withered))
Windgrass [4]
  herbicidal effect, L: windgrass: 0 (Herbicidal rate of 5% or less (almost no effect))
Velvetleaf [5]
  herbicidal effect, M: velvetleaf: 1 (Herbicidal rate of 5% or more and less than 20%)
Blackgrass [6]
  herbicidal effect, J: blackgrass: 0 (Herbicidal rate of 5% or less (almost no effect))
Wild oat [7]
  herbicidal effect, I: wild oat: 0 (Herbicidal rate of 5% or less (almost no effect))
Italian ryegrass [8]
  herbicidal effect, K: Italian ryegrass: 0 (Herbicidal rate of 5% or less (almost no effect))
Persian speedwell [9]
  herbicidal effect, R: persian speedwell: 0 (Herbicidal rate of 5% or less (almost no effect))
Persian speedwell [10]
  R: persian speedwell, herbicidal effect grade: 5 (Herbicidal rate of 90% or more (almost completely withered))
Barnyard grass [11]
  herbicidal effect, H: barnyard grass: 1 (Herbicidal rate of 5% or more and less than 20%)
Barnyard grass [12]
  herbicidal effect on H: barnyard grass: 5 (Herbicidal rate of 90% or more (almost completely withered))
Blackgrass [13]
  J: blackgrass, herbicidal effect grade: 4 (Herbicidal rate of 70% or more and less than 90%)
Southern crabgrass [14]
  herbicidal effect, F: southern crabgrass: 1 (Herbicidal rate of 5% or more and less than 20%)
False cleavers
  herbicidal effect, Q: false cleavers: 0 (Herbicidal rate of 5% or less (almost no effect))
Lambsquarters [15]
  O: lambsquarters, herbicidal effect grade: 5 (Herbicidal rate of 90% or more (almost completely withered))
Windgrass [16]
  L: windgrass, herbicidal effect grade: 5 (Herbicidal rate of 90% or more (almost completely withered))
Wild oat [17]
  I: wild oat, herbicidal effect grade: 5 (Herbicidal rate of 90% or more (almost completely withered))
Chickweed [24]
  P: chickweed, herbicidal effect grade: 5 (Herbicidal rate of 90% or more (almost completely withered))
Chickweed [18]
  herbicidal effect, P: chickweed: 0 (Herbicidal rate of 5% or less (almost no effect))
Rice flat sedge
  herbicidal effect on E: rice flat sedge: 5 (Herbicidal rate of 90% or more (almost completely withered))
Southern crabgrass [19]
  F: southern crabgrass, herbicidal effect grade: 2 (Herbicidal rate of 20% or more and less than 40%)
Redroot pigweed [20]
  herbicidal effect, N: redroot pigweed: 5 (Herbicidal rate of 90% or more (almost completely withered))
Barnyard grass [21]
  H: barnyard grass, herbicidal effect grade: 5 (Herbicidal rate of 90% or more (almost completely withered))
Green foxtail [22]
  herbicidal effect, G: green foxtail: 2 (Herbicidal rate of 20% or more and less than 40%)
Chinese sprangletop
  herbicidal effect on D: Chinese sprangletop: 3 (Herbicidal rate of 40% or more and less than 70%)
Redroot pigweed [25]
  N: redroot pigweed, herbicidal effect grade: 5 (Herbicidal rate of 90% or more (almost completely withered))
Velvetleaf [23]
  M: velvetleaf, herbicidal effect grade: 5 (Herbicidal rate of 90% or more (almost completely withered))
